Data taken from PubChem BioAssay (NCI).
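Five concentrations, 48 hours, 96-well plates. Here, GI50 denotes the concentration required for 50% inhibition of growth. TGI marks complete inhibition of growth.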

How the values were obtained:
Assay in all cases: NCI anticancer screen, dose series, 48 h
[1] = test system: UACC-62 melanoma
[2] = test system: NCI-H23 lung
[3] = test system: NCI-H460 lung
[4] = test system: ACHN renal
[5] = test system: SNB-19 CNS
[6] = test system: U251 CNS
[7] = test system: NCI-H226 lung
[8] = test system: SN12C renal
[9] = test system: DU-145 prostate
[10] = test system: IGROV1 ovarian

Structure (SMILES) | GI50 [1] [µM] | TGI [1] [µM] | GI50 [2] [µM] | TGI [2] [µM] | GI50 [3] [µM] | TGI [3] [µM] | GI50 [4] [µM] | TGI [4] [µM] | GI50 [5] [µM] | TGI [5] [µM] | GI50 [6] [µM] | TGI [6] [µM] | GI50 [7] [µM] | TGI [7] [µM] | GI50 [8] [µM] | TGI [8] [µM] | GI50 [9] [µM] | TGI [9] [µM] | GI50 [10] [µM] | TGI [10] [µM]
COc1ccc(C(=O)N/N=C/c2ccc(O)cc2O)cc1Nc1ccnc(C(F)(F)F)c1 | 0.448 | 11.4 | 2.39 | 20.3 | 3.14 | 12.7 | 1.54 | 35.8 | 0.816 | 56.7 | 0.401 | 29.4 | 1.39 | 11.6 | 1.15 | > 47 | 0.622 | 15.2 | 0.575 | 23.4
O=C1C=C(Nc2nc(C(=O)O)cc(=O)[nH]2)c2ccccc2C1=O |  | > 100 |  | > 100 |  | > 100 |  | > 100 |  | > 100 |  | > 100 |  | > 100 |  | > 100 |  | > 100 |  | > 100
C[C@@]12CCC[C@@](C)(C(=O)O)C1CC[C@@]13CC(=O)[C@@](CO)(CCC12)C3 (some centres not stated) | > 100 | > 100 | > 100 | > 100 | > 100 | > 100 | > 100 | > 100 | > 100 | > 100 | > 100 | > 100 | > 100 | > 100 | > 100 | > 100 | > 100 | > 100 | > 100 | > 100
CC(C)[C@@H](CS(=O)(=O)C(C)C)N1C(=O)[C@@](C)(CC(=O)O)C[C@H](c2cccc(Cl)c2)[C@H]1c1ccc(Cl)cc1 | 0.333 | 11.3 | 17 | 56.8 | 0.388 | 15.1 | 0.394 | 15.4 | 14.6 | 66.5 | 7.86 | 25.3 | 0.193 | 0.422 | 19.8 | > 70.5 | 21.8 | > 100 | 8.61 | > 85.1
Nc1c(O)c(S(=O)(=O)O)c(O)c2c1C(=O)c1ccccc1C2=O | 3.21 | 65.6 | 2.82 | 9.88 | 2.86 | 22 | 2.43 | 6.8 | 3.8 | 52.4 | 3.09 | 11.1 | 4.12 | > 100 | 3.29 | 11.6 | 3.8 | > 100 | 3.29 | > 100
CCOC(=O)c1cnc2c(cnn2CC)c1NN=C(C)C | 45.3 | > 100 | > 100 | > 100 | 57.5 | > 100 | 24 | > 100 | 32.6 | > 100 | 35.6 | > 100 | 57.4 | > 100 | 38.2 | > 100 | 29.5 | > 100 | 38.3 | > 100
COc1cccc(C2C(C#N)=C(N)Oc3cc(OC)ccc32)c1 (configuration not stated) | 0.0682 | > 94.9 | 0.0415 | > 33 | 0.0353 | 3.64 | 0.138 | > 100 | 0.517 | > 89.6 | 0.0419 | > 100 | 0.896 | > 100 | 0.0773 | > 41.8 | 0.0347 | 1.55 | 0.0622 | > 50.9
CC12CCC(O)CC1CCC1C2CCC2(C)C(C3=CC(=O)OC3)CCC12 (configuration not stated) | 0.522 |  | 5.81 | > 64.6 | 0.493 | > 100 | 26.4 | > 91.3 | 14.2 | > 100 | 2.62 | 10.1 | > 33.6 | > 100 | 53.8 | > 100 | 42.4 | > 100 | 20.5 | > 71
O=C1C(=O)c2c(nc3ncccn23)-c2ccccc21 | 0.177 | 0.326 | 0.193 | 0.432 | 0.227 | 0.526 | 0.174 | 0.373 | 0.247 | 0.722 | 0.316 | 1.16 | 0.493 | 1.25 | 0.173 | 0.325 | 0.181 | 0.336 | 0.245 | 0.566
CC(C)c1ccc(O)c(=O)cc1 |  | 21.8 | 17.2 | > 74 | 2.66 | 81.4 | 4.46 | > 68.5 | 15.3 | > 71.4 | 6.53 | > 80.9 | 66.7 | 36.5 | 5.85 | > 100 | 9.43 |  | 7.48 | > 100
CCc1nc(N)nc(N)c1-c1ccc(Cl)c(N=NN(C)C)c1 |  | 76.8 |  | > 100 |  | 40.5 |  | > 89.7 |  | > 100 |  | > 100 |  | > 100 |  | > 100 |  | > 100 |  | > 95.5
Oc1ccc(SCc2ccc(NCc3ccccc3)cc2)cc1 |  | 76.4 |  | > 100 |  | > 100 |  | > 100 |  | 64.8 |  | > 100 |  | > 100 |  | 64.6 |  | > 100 |  | > 100
Clc1ccc(-c2cn(-c3ccccc3)c(-c3ccccc3)n2)c(Cl)c1 | > 20.2 | > 50 | > 16.2 | > 50 | 1.09 | 2.39 | 2.22 | > 50 | 6.98 | > 42.6 | 1.25 | 3.83 | > 26 | > 50 | 4.09 | > 30.1 | 0.892 | 2.09 | 2.92 | > 44.8
CCN1CCCCC(=N\O)/C(=N/O)CCCC1 |  | > 100 |  | > 100 |  | > 100 |  | > 100 |  | > 100 |  | > 100 |  | > 100 |  | > 100 |  | > 100 |  | > 100
